Measurements: patent publication US20220041681A1 (MEDIMMUNE LIMITED, priority 2016, published 2022)
Where two headings read alike, the source gives them in different places.

Assays:
human serum albumin = human serum albumin (Homo sapiens, UniProt P02768); assay: Fraction of free peptide calculated from variation in cAMP generation with HSA concentration; conditions: human
Description: Data was transformed to % Delta F as described in manufacturer's guidelines and analysed by 4-parameter logistic fit to determine EC50 values. […] To compare the balance of activities at the GLP1R and GlucR between different peptides and across different conditions, these can be correlated using the calculation below, where the EC50's are related to those of the natural ligands.

[1] = format: in vitro ADME, human; conditions: human, 24 h, 2 μmol/L
Procedure: (§1) Stability testing of peptides in plasma.
(§2) Stock solutions of the peptides of about 200 μmol/L was prepared by weighing solid peptide into a Eppendorf Low Bind Tube and dissolved in DMSO. 10 μL of stock solutions were added to 990 μL of plasma in an Eppendorf Low Bind Tube, resulting in initial concentrations of the peptides in plasma of about 2 μmol/L. The frozen blank plasma from human, rat and mouse had been thawed and heated to a temperature of 37° C. before addition of the stock solution. The spiked plasma samples were gently mixed and allowed to equilibrate for about 5 minutes before start of experiment. The plasma samples were incubated for 48 hours in a GalaxyR CO2 incubator at 37° C. Sampling (30 μL) was performed at 0, 1, 2, 6.5, 17, 24 and 48 hours. The samples were stored at −70° C. until analysis.
(§3) Plasma samples were assayed as follows. The 30 μL plasma samples were protein precipitated with […] of cold ethanol in a 96-well low bind plate (Eppendorf Protein LoBind). After mixing and centrifugation, 100 μl the supernatant was transferred to a new plate and 1 μl was injected onto an analytical column.
(§4) The analysis was performed using a μLC-system (LC Exigent μLC) coupled to a medium high resolution mass spectrometer (Perkin Elmer PenTOF) with positive electrospray ionisation. The analytical column was a 5 cm, 1 mm Agilent Poroshell (custom made) C18-column with a particle size of 2.7 μm. Flow: 0.1 ml/min using a slow reversed phase gradient. Mobile phases used were acetonitrile and water containing 0.1% formic acid.
(§5) The resulting data were manually evaluated for the following degradation products: +1 product (acid) and the DPP IV-cleavage product. Products with +1 mass may arise from deamidation at amide groups of glutamine or at the C-terminus. Cleavage products arise from the action of the protease DPP IV in plasma. Both the degradation of the peptides and formation of peptide products were reported in percentage of the initial peptide concentration. Peaks were integrated and % remaining peptide was calculated: (peak area/peak area 0H)*100. Levels of deamidation and DPP IV cleavage were low for G797 and G933.

[2] = system: overweight or obese subjects with type 2 diabetes mellitus (T2DM); assay: Multiple-ascending dose study Part II (Cohorts 5 and 6); format: in vivo, human; conditions: for Fasting Glucose (change) / Glucose AUG (change) / Weight (change): n = 12 active
Procedure: A randomized, double-blind, multiple-ascending dose study is performed. This study consists of 2 cohorts: cohort 5 and cohort 6.
The study consists of an inpatient up-titration evaluation period beginning on Day 3 for both Cohorts 5 and 6 and an outpatient follow-up period. The first 4 days and the final day of dosing at 300 μg are inpatient.
Subjects have a second inpatient period for the initiation of the 300 μg dose ending on the fourth day at that dose followed by at-home self administration.
Additional time points include before commencing the 300 μg dose (Day 16 for Cohort 5 and Day 11 for Cohort 6), and at the end of dosing (Day 22 for Cohort 5 and Day 17 for Cohort 6).

[3] = Phase 1 single-ascending dose study; conditions: human, plasma, subcutaneous, 300 μg
[4] = system: overweight or obese subjects with type 2 diabetes mellitus (T2DM); conditions: human, in vivo
Procedure: (§6) A Phase 1/2, randomized, double-blind, multiple-ascending dose study is performed in two parts (A and B).
Part A consists of 3 cohorts.
Part B consists of 1 cohort.
(§7) The initial dose is 100 μg. […] The study duration for each subject varies by cohort and consists of an inpatient multiple-ascending dose (MAD) or up-titration evaluation period (beginning on Day −2 and ending after Day 8 for Cohort 1, Day 12 for Cohort 2, Day 16 for Cohort 3, and Day 13 for Cohort 4) and an outpatient follow-up period.
(§8) The subject remains in the facility for observation and safety tests including ECGs, telemetry, monitoring of vital signs, and assessments of the injection site for potential reactions throughout the day and during the treatment period.
(§9) Mixed-meal test (MMT) procedures are performed on Day −1 and on the last day of the highest dose level achieved for all cohorts. […] For the MMT, the subject consumes a standardized meal (Ensure Plus %) within 5 minutes, and timed serial blood samples are obtained for measurement of glucose and parameters related to glucose metabolism just before and through 240 minutes after consumption of the standandized meal. During the inpatient period, finger prick glucose samples are collected 15 minutes prior to and 2 hours after breakfast, mid-day, and evening meals, and prior to going to bed.
(§10) Cohort 4 subjects are re-admitted for an overnight inpatient stay at the end of the at-home self-administration period to collect the final endpoints.
(§11) Subjects are discharged from the unit the day after the final dose is administered in the study.
(§12) Missing measurements at the end of treatment are replaced with the last available measurement. The comparison is conducted at a two-sided significance level of 0.1.

[5] = system: overweight or obese subjects with type 2 diabetes mellitus (T2DM); assay: Phase 1/2 multiple-ascending dose study Part I (Cohorts 1-4)
Procedure: as §6
Part A consists of 3 cohorts.
Part B consists of 1 cohort.
as §7, §8, §9, §10, §11, §12

[6] = Stability testing of peptides in plasma; format: in vitro ADME, mouse; conditions: mouse, 24 h, 2 μmol/L
Procedure: as §1, §2, §3, §4
as §5, with “Levels of deamidation and DPP IV cleavage were low for G797 and G933.” left out

[7] = Cohort 4, 200 ug, n = 25 active

Sequence of human serum albumin (P02768 25-609): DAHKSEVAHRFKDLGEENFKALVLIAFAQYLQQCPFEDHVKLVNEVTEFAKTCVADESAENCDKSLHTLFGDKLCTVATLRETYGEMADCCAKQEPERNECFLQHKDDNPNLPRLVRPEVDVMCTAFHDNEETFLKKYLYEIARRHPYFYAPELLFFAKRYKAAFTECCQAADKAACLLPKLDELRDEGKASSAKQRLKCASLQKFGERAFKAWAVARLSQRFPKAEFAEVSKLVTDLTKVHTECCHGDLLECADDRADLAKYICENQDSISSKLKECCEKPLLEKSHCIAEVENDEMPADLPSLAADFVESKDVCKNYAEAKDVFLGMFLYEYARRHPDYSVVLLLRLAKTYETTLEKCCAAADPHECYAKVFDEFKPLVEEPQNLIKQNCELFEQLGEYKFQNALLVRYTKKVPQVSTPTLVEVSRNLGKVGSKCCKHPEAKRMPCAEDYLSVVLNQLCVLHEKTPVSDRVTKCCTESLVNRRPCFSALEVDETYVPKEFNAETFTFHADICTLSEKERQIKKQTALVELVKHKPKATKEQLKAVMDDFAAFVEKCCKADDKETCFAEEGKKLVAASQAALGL

In the case of `CCCCCCCCCCCCCCCC(=O)N[C@@H](CCC(=O)NCCCC[C@H](NC(=O)[C@H](CC(=O)O)NC(=O)[C@H](CO)NC(=O)C(NC(=O)[C@H](Cc1ccccc1)NC(=O)C(NC(=O)CNC(=O)[C@H](CCC(N)=O)NC(=O)[C@H](CO)NC(=O)[C@@H](N)Cc1cnc[nH]1)[C@@H](C)O)[C@@H](C)O)C(=O)N[C@@H](CO)C(=O)N[C@@H](CCC(=O)O)C(=O)N[C@@H](Cc1ccc(O)cc1)C(=O)N[C@@H](CC(C)C)C(=O)N[C@@H](CC(=O)O)C(=O)N[C@@H](CO)C(=O)N[C@@H](CCC(=O)O)C(=O)N[C@@H](CCCNC(=N)N)C(=O)N[C@@H](C)C(=O)N[C@@H](CCCNC(=N)N)C(=O)N[C@@H](CC(=O)O)C(=O)N[C@@H](Cc1ccccc1)C(=O)N[C@H](C(=O)N[C@@H](C)C(=O)N[C@@H](Cc1c[nH]c2ccccc12)C(=O)N[C@@H](CC(C)C)C(=O)N[C@@H](CCC(=O)O)C(=O)N[C@@H](C)C(=O)NCC(=O)NCC(=O)O)C(C)C)C(=O)O` (stereo partly drawn) [Peptide G933], the “free peptide at 4.4% HSA” value (human serum albumin) is reported as 0.29%, the “% DPP cleaved product/+1 DPP cleaved product” value [1] is reported as less than 1% and the “% stable peptide” value [1] is reported as 86%. The “Levels of deamidation and DPP IV cleavage” value ([1]; rat, mouse) was “low”, the “glucose AUC reduction” value ([2]; Cohort 5 (100/150/200/300 μg, 22 days)) was 41.7% and the “Fasting Glucose (change)” value ([2]; Cohort 5, 300 ug) was -24.40 mg/dL. For the same compound, the “Glucose AUG (change)” value ([2]; Cohort 5, 300 ug) was −33.7, the “Weight (change)” value ([2]; Cohort 5, 300 ug, difference to placebo after 22 days) was -2.11 kg and the “weight loss difference vs placebo” value ([2]; Cohort 5, 22 days) was 2.11 kg. For the same compound, the “heart rate increase from baseline” value ([2]; Cohort 5, 22 days administration) was “approximately 7.6 BPM”, the weight lost ([2]; Cohort 5, after 22 days) was “about 3.09 kg” and the “glucose AUC reduction” value ([2]; Cohort 6 (100/200/300 μg, 17 days)) was 35.8%. The “Fasting Glucose (change)” value ([2]; Cohort 6, 300 ug) was -36.94 mg/dL, the “Glucose AUG (change)” value ([2]; Cohort 6, 300 ug) was −28.9 and the “Weight (change)” value ([2]; Cohort 6, 300 ug, difference to placebo after 17 days) was -1.88 kg. The patients who vomited ([2]; Cohort 6, 1 patient) was 8.3%, the “weight loss difference vs placebo” value ([2]; Cohort 6, 17 days) was 1.88 kg and the “heart rate increase from baseline” value ([2]; Cohort 6, 17 days administration) was “approximately 5.9 BPM”. For the same compound, the weight lost ([2]; Cohort 6, after 17 days) was “about 2.23 kg”, the “deaths or serious adverse events” value ([2]; Cohorts 5 and 6) was “No deaths or serious adverse events were observed” and the rate of vomiting ([2]; Cohorts 5 and 6 together, 4/24) was 16%. For the same compound, the rate of nausea ([2]; Cohorts 5 and 6 together, 8/24) was 33%, the AUC(0-t) [3] was 364 ng·h/mL and the half-life [4] was 8 to 11 h. For the same compound, the “Fasting Glucose (change)” value ([5]; Cohort 1, 100 ug, n = 6 active) was -28.00 mg/dL, the “Glucose AUG (change)” value ([5]; Cohort 1, 100 ug, n = 6 active) was −27.3 and the “Weight (change)” value ([5]; Cohort 1, 100 ug, n = 6 active) was -1.1 kg. The “Fasting Glucose (change)” value ([5]; Cohort 2, 150 ug, n = 6 active) was -17.90 mg/dL, the “Glucose AUG (change)” value ([5]; Cohort 2, 150 ug, n = 6 active) was −8.9 and the “Weight (change)” value ([5]; Cohort 2, 150 ug, n = 6 active) was -0.5 kg. The weight differential ([5]; Cohort 3) was “more than 2 kg”, the “Fasting Glucose (change)” value ([5]; Cohort 3, 200 ug, n = 6 active) was -43.20 mg/dL and the “Glucose AUG (change)” value ([5]; Cohort 3, 200 ug, n = 6 active) was −31.6. The “Weight (change)” value ([5]; Cohort 3, 200 ug, n = 6 active) was -2.4 kg, the “reduction in liver volume compared to placebo” value ([5]; Cohort 4) was 0.14 L and the “Death (grade 5 severity)” value ([5]; Cohort 4, 200 μg, N = 25) was 0. The “Subject with at least one G933-related serious event” value ([5]; Cohort 4, 200 μg, N = 25) was 0, the “Subject with at least one event” value ([5]; Cohort 4, 200 μg, N = 25) was 22 (88.8%) and the “Subject with at least one event leading to discontinuation of G933” value ([5]; Cohort 4, 200 μg, N = 25) was 3 (12.0%). The “Subject with at least one event of ≥ grade 3 severity” value ([5]; Cohort 4, 200 μg, N = 25) was 0, the “Subject with at least one serious event” value ([5]; Cohort 4, 200 μg, N = 25) was 0 and the “Fasting Glucose (change)” value [5, 7] was -31.62 mg/dL. The “Glucose AUG (change)” value [5, 7] was −22.5, the patients who vomited ([5]; Cohort 4, 8 patients) was 32.0% and the patients reporting nausea ([5]; Cohort 4, 13 patients) was 52.0%. For the same compound, the “patients who lost at least 2% of their weight” value ([5]; Cohort 4, 41 days) was 84%, the “patients who lost at least 5 kg” value ([5]; Cohort 4, 41 days) was 44% and the “percent weight loss difference between G933 and placebo” value ([5]; Cohort 4, 41 days) was 2.47%. The “weight loss difference between G933 and placebo” value ([5]; Cohort 4, 41 days) was 2.12 kg, the “increase in heart rate” value ([5]; Cohort 4, Day 41) was 6.9 bpm and the “percent of weight lost” value ([5]; Cohort 4, after 41 days) was “about 4.18%”. The weight lost ([5]; Cohort 4, after 41 days) was “about 3.83 kg”, the HbA1c reduction ([5]; Cohort 4, after 41 days of treatment) was 0.92% and the “mean HbA1c on day 42” value ([5]; Cohort 4, baseline mean […]) was 6.3%. The “mean reduction in glucose AUC from baseline (day 1) to day 41” value ([5]; Cohort 4, up to 200 μg) was 38.5%, the patients with vomiting ([5]; Cohorts 1-3 (n=5)) was 26% and the weight loss ([5]; Cohorts 1-3, dose dependent trend) was “up to 2 kg”. For the same compound, the “mixed-meal test glucose AUC reduction” value ([5]; across Cohorts 1-3 (100-200 μg QD)) was greater than 40%, the “increase in pulse rate” value ([5]; each of Cohorts 1-3) was “about 10 bpm” and the “Between-subject variability in Cmax” value ([5]; larger Cohort 4) was 40-50%. The anti-G933 antibody ([5]; post baseline, Cohorts 1-3) was “Only one sample was confirmed positive”, the “Between-subject variability in Cmax” value ([5]; smaller cohorts, Parts I and II) was 20-30% and the “% stable peptide” value [6] was 83%.
